Patent US20250151812A1, “METHOD AND INHALER FOR PROVIDING TWO OR MORE […] INHALATION” (Syqe Medical Ltd., priority 2018, published 2025)
Values joined by “and” are separate entries in the source; they are usually repeats but may differ in a detail not shown here. Equal values may be shown once.

Key:
Assay type in all cases: physicochemical
[1] = Bediol strain Cannabis, two heating durations; aerosol analyzed using UPLC (Table 3, FIG. 17B); details: 180 C., 1.1 L/min; for mg API: in aerosol, 13.5 mg Bediol strain Cannabis; for total (acid + neutral form): sum for the acid and its neutral form, 13.5 mg Bediol
Experimental: In the following related experiment performed by the inventors, samples having 13.5 mg of Bediol strain Cannabis (Bedrocan, Holland) were tested using two operation profiles and compared to a raw material. The samples were heated to a temperature of 180° C. under an airflow rate of 1.1 liter/minute. In the first operation profile, the heating duration was 1.5 seconds; in the second operation profile, the heating duration was 2.5 seconds. Aerosol was collected, extracted and analyzed using UPLC. As can be observed from this example, under certain conditions, lengthening the heating duration increased the CBD/total THC ratio (from about 0.79 in the first operation profile to about 0.96 in the second operation profile). As can also be observed from this example, under certain conditions, lengthening the heating duration released higher amounts of all active substances tested (CBDA, CBD, THCA, Δ9-THC). (API-active pharmaceutical ingredient).

[2] = Effect of airflow rate on decarboxylation of THCA; aerosol from heated Bedrocan cannabis samples analyzed in UPLC; details: 13.5 mg Bedrocan sample, 185° C., 1620 ms
Experimental: In the following experiment performed by the inventors, the effect of airflow rate on decarboxylation of THCA was tested. 14 samples (7 samples tested in each of the profiles) of 13.5 mg each of Bedrocan strain (Bedrocan, Holland) were heated for 1620 ms to a temperature of 185° C. In a first operation profile (upper table), the rate of flow through the sample was set to 1.1 L/min; in a second operation profile (lower table), the rate of airflow through the sample was set to 0.85 L/min. Aerosol was collected and extracted and analyzed in UPLC (Ultra performance liquid chromatography) for the presence of THCA and Δ9-THC. As can be observed, in this example, under certain conditions, increasing the rate of flow through the sample increased the percentage of THCA in the aerosol. (As shown below, the percentage of THCA was calculated as the amount of THCA divided by the total amount of both THCA and Δ9-THC.) The graph of FIG. 17A presents the results shown in the table below.

[3] = Various operation profiles (heating temperature, airflow rate, heating duration); aerosol analyzed in UPLC for THCA and Δ9-THC
Experimental: In another experiment performed by the inventors, various operation profiles were tested. In lines 1-9 of the table below, a change in the heating temperature was tested, while the rate of airflow and the heating duration remained constant. Aerosol was collected and extracted and analyzed in UPLC for the presence of THCA and Δ9-THC. A graph presenting the results obtained for the various heating temperatures is shown in FIG. 7 and further discussed below; in lines 10-14 of the table, a change in the rate of airflow was tested, while the temperature and the heating duration remained constant; in lines 17-19 of the table, a change in the heating duration was tested, while the temperature and rate of airflow remained constant. As can be observed, in this example, under certain conditions, increasing the heating temperature (while maintaining other parameters (flow rate, duration of heating) constant) reduced the percentage of THCA released; lengthening the heating duration (while maintaining other parameters constant) reduced the percentage of THCA released. (As shown below, the percentage of THCA was calculated as the amount of THCA divided by the total amount of both THCA and Δ9-THC.)
Reference is now made to FIG. 7 which is a graph showing the effect of the temperature on the relative amount of THCA vaporized. The experiment procedure and the results are also discussed above and presented in Table 2 Samples having 13.5 mg of a defined type of cannabis were tested by applying air at 1.1 liter/minute for 1.5 seconds at various temperatures from 160°° C. to 200° C. The relative amount of THCA were measured against the total amounts of Δ9-THC+THCA. […] Accordingly, by selecting the temperature and/or the time-temperature profile, the amount of THCA provided during inhalation may be controlled (e.g., selected by the user).

[4] = FIG. 6: CBDA/CBD and THCA/Δ9-THC ratios at two operation profiles; aerosol analyzed using UPLC; details: 13.5 mg cannabis; 180° C., airflow 1 liter/minute; 1.5 seconds versus 2.5 second
Experimental: Reference is now made to FIG. 6, which is a bar chart of the ratios between CBDA/CBD and THCA/Δ9-THC received at various operation profiles according to some embodiments of the invention. Samples having 13.5 mg of a defined type of cannabis were tested at two operation profiles. The samples were heated to a temperature of 180° C. under an airflow of 1 liter/minute) for 1.5 seconds and 2.5 second. Aerosol was collected, extracted and analyzed using UPLC.

Compound | mg API ([1]; heating duration 1500 ms) [mg] | mg API ([1]; heating duration 2500 ms) [mg] | Δ9-THC ([2]; flow rate 0.85 L/min) | Δ9-THC ([2]; flow rate 1.1 L/min) | Δ9-THC ([3]; 13.5 mg cannabis, 1.1 L/min, 1500 ms, 160° C.) | Δ9-THC ([3]; 13.5 mg cannabis, 1.1 L/min, 1500 ms, 175° C.) | Δ9-THC ([3]; 13.5 mg cannabis, 1.1 L/min, 1500 ms, 200° C.) | Δ9-THC ([3]; 175 C., 1500 ms, flow 1.2 L/min) | Δ9-THC ([3]; 175 C., 1500 ms, flow 1.3 L/min) | Δ9-THC ([3]; 185° C., 1.1 L/min, heating 600 ms) [mg] | Δ9-THC ([3]; 185° C., 1.1 L/min, heating 800 ms) [mg] | Δ9-THC ([3]; 185° C., 1.1 L/min, heating 1000 ms) [mg] | total (acid + neutral form) ([1]; heating duration 1500 ms) | total (acid + neutral form) ([1]; heating duration 2500 ms) | amount of acids left after vaporization, by heating duration [4]
C=C(C)[C@@H]1CCC(C)=C[C@H]1c1c(O)cc(CCCCC)cc1O [CBD, Cannabidiol, reference compound] | 0.201 | 0.477 |  |  |  |  |  |  |  |  |  |  |  |  | 
CCCCCc1cc(O)c2c(c1)OC(C)(C)[C@@H]1CCC(C)=C[C@@H]21 [Δ9-THC, Δ9-tetrahydrocannabinol, reference compound] | 0.254 | 0.498 | 0.521 mg and 0.559 mg and 0.529 mg and 0.486 mg and 0.434 mg and 0.357 mg and 0.365 mg | 0.462 mg and 0.452 mg and 0.445 mg and 0.484 mg and 0.527 mg and 0.431 mg and 0.587 mg | 0.220 mg and 0.201 mg and 0.208 mg | 0.475 mg and 0.461 mg and 0.478 mg | 0.972 mg and 0.831 mg and 0.790 mg | 0.467 mg and 0.423 mg | 0.459 mg and 0.468 mg and 0.440 mg | 0.093 | 0.315 | 0.620 |  |  | 
C=C(C)[C@@H]1CCC(C)=C[C@H]1c1c(O)cc(CCCCC)c(C(=O)O)c1O [CBDA, cannabidiolic acid] | 0.125 | 0.188 |  |  |  |  |  |  |  |  |  |  | 0.311 | 0.642 | the longer the operation profile the less amount of acids
